Data published in US8809358B2, “Use of IκB-kinase inhibitors in pain therapy” (Sanofi-Aventis Deutschland GmbH, priority 2002, dated 2014).

Key:
[1] = system: Kaolin/carrageenan-induced knee joint inflammation; assay: Kaolin/carrageenan-induced knee joint inflammation in the rat: reaction of spinal neurons during pressure stimulation of the knee; assay type: in vivo
Text: • Zymosan-induced paw inflammation in the rat; • Parameter: paw withdrawal time or paw withdrawal threshold during thermal or mechanical stimulation of the hind paw. 2nd Model: • Kaolin/carrageenan-induced knee joint inflammation in the rat; • Parameter: reaction of spinal neurons during pressure stimulation of the knee. Model 1
Experimental implementation: In rats which were under sodium thiopental anesthesia, the spinal canal was opened and spinal medullary neurons which processed the “pain impulses” from the knee-joint were identified. Following identification, a long-term recording, in which the activity of the nerve cell was recorded before and during the development of an acute inflammation in the knee-joint, was carried out. For this, the responses to non-noxious and noxious stimulation at the knee-joint were measured in a control period before inducing the inflammation and for several hours after inducing the inflammation.
The acute inflammation was induced by the intraarticular injection of a suspension (about 150 μl) of kaolin and carrageenan. In controlled experiments, only the vehicle was applied to the spinal medullary surface in order to represent the development of the hyperexcitability under control conditions. As a rule, this development of hyperexcitability took place within 2 to 4 hours and was expressed in a marked increase in the responses to non-noxious and noxious stimulation of the knee-joint (Tab. 3). […] The responses of the cell to non-noxious and noxious stimulation were then subsequently monitored as in the control experiments.

IκB-kinase = molecular target: T1, IκB-kinase (Homo sapiens, UniProt O14920+O15111); assay: IκB-Kinase ELISA; assay type: biochemical; conditions: kinase complex from HeLa S3 cell extract, activated with MEKK1Δ
T1 construct: endogenous in cells; host or cells: HeLa S3 cell extract S100; ammonium sulfate cut and Superose-6 gel filtration (670 kDa fractions)

[2] = system: Zymosan-induced paw inflammation; assay: Zymosan-induced paw inflammation in the mouse: paw withdrawal time during thermal stimulation of the hind paw; assay type: in vivo; conditions: thermal hyperalgesia AUC, seven days; 200 mg/kg twice daily
Protocol: • Zymosan-induced paw inflammation in the mouse; • Parameter: paw withdrawal time during thermal stimulation of the hind paw. Experimental implementation: In short-term anesthesia using isoflurane, 25 μl of a suspension containing 50 mg of zymosan/ml were injected into the right hind paw of the experimental animal. The development of a hyperalgesia was then determined quantitatively as follows: Determining the Paw Withdrawal Time During Thermal Stimulation (Hargreave's Test; See Above). The experimental animal was placed in a transparent plastic chamber having a glass floor. As soon as the experimental animal was no longer moving, following the reconnaissance phase (about 5 min), an infrared light source was positioned directly below the hind paw to be stimulated and switched on. The lamp emitted focused infrared light of increasing intensity such that the skin temperature of the hind paw increased almost linearly. As soon as the animal withdrew the paw, the lamp switched itself off. The temperature of the paw at the time it is withdrawn has just become unpleasant for the animal; this is referred to as the thermal pain threshold. Shortly before the zymosan injection, and for from 7 to 14 days after the injection, the thermal pain threshold was determined once daily on the right hind paw and left hind paw. Subsequently, the integral of the area which was formed from the curves for the paw withdrawal times of the inflamed paw and the noninflamed paw (AUC, area between the curves, see tables 5 and 6) was determined as a measure of the hyperalgesia. The larger this value is, the more pronounced is the hyperalgesia, and the smaller the value is in animals which are being given the substance, the greater is the success of the therapy. […] A very high dose of paracetamol was likewise administered twice daily to another group of animals which was taken through the experiment in parallel. […] The scheme for zymosan injection and dosing was identical to that in the previously described study. The only difference was that this additional study ran for 14 days.

[3] = system: Zymosan-induced paw inflammation; assay: Zymosan-induced paw inflammation in the mouse: spontaneous running performance in a running wheel; assay type: in vivo, C57/B6 mice
Protocol: 4th Model: • Zymosan-induced paw inflammation in the mouse; • Parameter: spontaneous running performance in a running wheel. In the cage in which it is kept, the experimental animal has access to a running wheel, the revolutions of which are recorded electronically. During the night hours, the C57/B6 mice use the running wheel voluntarily and, after a one-week phase of acclimatization, cover on average 4 100 meters/night. After zymosan has been injected, the distance run each night is reduced. This reduction in running performance is a valid parameter for a restriction in function which is due to inflammation pain. Experimental implementation: After an acclimatization phase of one week, the distance run/24 hours was measured in order to determine the base line. 25 μl of a suspension containing 50 mg of zymosan/ml were then injected into the right hind paw of the experimental animal during short-term anesthesia using isoflurane. The distance run/24 hours was then determined during the following seven days. In the analysis, the area under the curve for the values for the distance run was determined (AUC, tab. 7): the lower the AUC, the lower was the running performance during the week following injection of the zymosan. […] The substance was administered for the first time on day 1 after injection of the zymosan.

T1 sequence (O14920 whole entry): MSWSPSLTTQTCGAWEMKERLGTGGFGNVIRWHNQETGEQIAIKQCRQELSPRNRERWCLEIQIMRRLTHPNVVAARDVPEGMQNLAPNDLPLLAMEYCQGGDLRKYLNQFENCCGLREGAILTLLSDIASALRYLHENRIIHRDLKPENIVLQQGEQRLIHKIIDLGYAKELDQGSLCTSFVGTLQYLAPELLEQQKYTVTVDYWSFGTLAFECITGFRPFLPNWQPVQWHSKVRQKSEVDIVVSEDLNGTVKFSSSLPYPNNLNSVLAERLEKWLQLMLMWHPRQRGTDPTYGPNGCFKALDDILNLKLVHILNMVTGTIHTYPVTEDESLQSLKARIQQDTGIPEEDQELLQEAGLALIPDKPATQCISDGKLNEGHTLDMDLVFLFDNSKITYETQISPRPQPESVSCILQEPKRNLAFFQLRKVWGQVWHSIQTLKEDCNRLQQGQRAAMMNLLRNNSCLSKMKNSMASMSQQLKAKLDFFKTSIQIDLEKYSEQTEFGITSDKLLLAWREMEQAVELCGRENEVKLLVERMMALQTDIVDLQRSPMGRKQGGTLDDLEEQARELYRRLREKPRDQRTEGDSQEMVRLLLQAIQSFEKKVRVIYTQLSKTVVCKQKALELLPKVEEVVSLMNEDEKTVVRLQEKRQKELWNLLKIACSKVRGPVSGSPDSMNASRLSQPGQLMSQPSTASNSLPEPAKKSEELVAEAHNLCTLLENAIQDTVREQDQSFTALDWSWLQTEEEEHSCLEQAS
T1 sequence (O15111 whole entry): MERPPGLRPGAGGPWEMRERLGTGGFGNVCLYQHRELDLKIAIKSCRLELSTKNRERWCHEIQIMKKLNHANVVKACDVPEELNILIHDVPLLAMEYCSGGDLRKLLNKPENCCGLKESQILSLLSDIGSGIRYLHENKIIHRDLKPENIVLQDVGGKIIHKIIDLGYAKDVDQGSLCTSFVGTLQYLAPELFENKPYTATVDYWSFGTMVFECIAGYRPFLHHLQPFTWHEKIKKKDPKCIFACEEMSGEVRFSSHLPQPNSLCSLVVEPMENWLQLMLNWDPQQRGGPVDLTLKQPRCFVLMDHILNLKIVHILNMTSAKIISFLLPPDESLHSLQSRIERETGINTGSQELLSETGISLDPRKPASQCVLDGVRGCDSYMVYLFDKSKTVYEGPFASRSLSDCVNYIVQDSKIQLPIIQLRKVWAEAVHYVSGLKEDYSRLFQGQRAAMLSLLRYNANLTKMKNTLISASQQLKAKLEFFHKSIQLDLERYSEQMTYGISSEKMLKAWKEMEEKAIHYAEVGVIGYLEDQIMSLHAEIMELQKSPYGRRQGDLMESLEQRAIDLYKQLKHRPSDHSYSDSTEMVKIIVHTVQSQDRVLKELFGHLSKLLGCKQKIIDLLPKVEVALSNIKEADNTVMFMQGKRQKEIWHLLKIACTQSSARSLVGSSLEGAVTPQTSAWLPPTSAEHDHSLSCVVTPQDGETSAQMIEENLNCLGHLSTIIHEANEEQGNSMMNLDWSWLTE
T1 sequence (Q9Y6K9 whole entry partner): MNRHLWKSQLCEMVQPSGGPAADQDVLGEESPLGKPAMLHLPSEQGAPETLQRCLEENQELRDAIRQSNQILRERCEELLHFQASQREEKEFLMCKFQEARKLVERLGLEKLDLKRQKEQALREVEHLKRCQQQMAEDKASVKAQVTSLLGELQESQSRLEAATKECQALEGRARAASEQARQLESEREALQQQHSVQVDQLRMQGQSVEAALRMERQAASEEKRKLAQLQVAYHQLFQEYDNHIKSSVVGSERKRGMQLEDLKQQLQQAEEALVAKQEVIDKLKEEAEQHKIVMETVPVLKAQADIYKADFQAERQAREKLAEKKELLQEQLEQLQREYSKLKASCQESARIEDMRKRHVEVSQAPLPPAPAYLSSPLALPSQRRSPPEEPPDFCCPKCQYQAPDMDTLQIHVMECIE

Compound: CNc1nccc(-c2nc3cc(C(=O)N[C@@H](CN(c4ccccc4)c4ccccc4)C(N)=O)ccc3[nH]2)n1 [Compound 22, N—((S)-1-carbamoyl-2-diphenylaminoethyl)-2-(2-methylaminopyrimidin-4-yl)-1H-benzimidazole-5-carboxamide]
- Neuronal responses before and during knee-joint inflammation (imp/15 s) ([1]; Experiment 1, Non-noxious stimulation at the knee-joint, 30-60 min after K/C injection): −34.1 imp/15 s
- Neuronal responses before and during knee-joint inflammation (imp/15 s) ([1]; Experiment 1, Non-noxious stimulation at the knee-joint, 60-120 min after K/C injection): −37.2 imp/15 s
- Neuronal responses before and during knee-joint inflammation (imp/15 s) ([1]; Experiment 1, Non-noxious stimulation at the knee-joint, 120-180 min after K/C injection): −32.1 imp/15 s
- Neuronal responses before and during knee-joint inflammation (imp/15 s) ([1]; Experiment 1, Non-noxious stimulation at the knee-joint, Baseline): 0 imp/15 s
- Neuronal responses before and during knee-joint inflammation (imp/15 s) ([1]; Experiment 1, Noxious stimulation at the knee-joint, 30-60 min after K/C injection): −109.1 imp/15 s
- Neuronal responses before and during knee-joint inflammation (imp/15 s) ([1]; Experiment 1, Noxious stimulation at the knee-joint, 60-120 min after K/C injection): −101.1 imp/15 s
- Neuronal responses before and during knee-joint inflammation (imp/15 s) ([1]; Experiment 1, Noxious stimulation at the knee-joint, 120-180 min after K/C injection): −37.8 imp/15 s
- Neuronal responses before and during knee-joint inflammation (imp/15 s) ([1]; Experiment 1, Noxious stimulation at the knee-joint, Baseline): 0 imp/15 s
- Neuronal responses before and during knee-joint inflammation (imp/15 s) ([1]; Experiment 2, Non-noxious stimulation at the knee-joint, 30-60 min after K/C injection): −30.6 imp/15 s
- Neuronal responses before and during knee-joint inflammation (imp/15 s) ([1]; Experiment 2, Non-noxious stimulation at the knee-joint, 120-180 min after K/C injection): 50.3 imp/15 s
- Neuronal responses before and during knee-joint inflammation (imp/15 s) ([1]; Experiment 2, Non-noxious stimulation at the knee-joint, 180-240 min after K/C injection): 68.7 imp/15 s
- Neuronal responses before and during knee-joint inflammation (imp/15 s) ([1]; Experiment 2, Non-noxious stimulation at the knee-joint, Baseline): 0 imp/15 s
- Neuronal responses before and during knee-joint inflammation (imp/15 s) ([1]; Experiment 2, Noxious stimulation at the knee-joint, 30-60 min after K/C injection): −9.2 imp/15 s
- Neuronal responses before and during knee-joint inflammation (imp/15 s) ([1]; Experiment 2, Noxious stimulation at the knee-joint, 120-180 min after K/C injection): 60 imp/15 s
- Neuronal responses before and during knee-joint inflammation (imp/15 s) ([1]; Experiment 2, Noxious stimulation at the knee-joint, 180-240 min after K/C injection): 96.7 imp/15 s
- Neuronal responses before and during knee-joint inflammation (imp/15 s) ([1]; Experiment 2, Noxious stimulation at the knee-joint, Baseline): 0 imp/15 s
- effect in model 2 ([1]; rat): good effect
- IC50 (IκB-kinase): 45 nM

Compound: CC(=O)Nc1ccc(O)cc1 [Paracetamol, reference compound]
- Statistical difference as compared with the vehicle [2]: yes
- distance run as compared with the vehicle group ([3]; mouse, 7 days, extremely high dose): no improvement
- Statistical difference as compared with the vehicle ([3]; running wheel AUC, seven days, 200 mg/kg twice daily): no
